Results on 1 molecule are retold here after US20250313653A1, “GUEST/HOST INCLUSION COMPLEXES CONTAINING S-NITROSOGLUTATHIONE AND METHODS OF USE THEREOF” (VIRGINIA COMMONWEALTH UNIVERSITY, priority 2022, published 2025).

A short description of data set [1]: NO release from GSNO solutions (chemiluminescence NO analyzer). Type of data set: physicochemical. To be noted: 3 mL of 0.1 M GSNO solution with or without an equal mole of αCD, 37° C. As for the experimental part: (§1) The NO release was quantified by an ECO PHYSICS NO analyzer (nCLD 66). […] of castor oil was added to NO release solutions as an antifoam agent when 3 mL GSNO or GSNO-CD solutions were tested in an amber glass cell at 37° C. Humidified air was vacuumed into the solution to carry NO continuously into the chemiluminescence detection chamber at a flow rate of 100 cm^3/min. The solutions were stored in sealed amber glass vials between measurements at 37° C. To monitor the NO release from catheters, solutions were filled into 2.5 cm-long medical-grade silicone tubes (HelixMark® 60-011-07, 1.58 mm ID, 2.41 mm OD) that were scaled on both ends with plastic rods. The filled tubes were placed into the amber glass cell containing 5 mL of 0.01 M PBS with 0.1 mM EDTA (PBSE) at 37° C. N2 was used as the carrier gas at a flow rate of 100 cm^3/min to introduce NO into the analyzer. Filled tubes were stored in 10 mL PBSE at 37° C. in the dark between measurements. The soaking PBSE solution was refreshed after each measurement.

The subject of another data set is S. aureus. The experiment in a line: Agar diffusion assay for the hydrogel containing GSNO. Type of data set: cell-based. To be noted: agar hydrogel on inoculated LB-agar plate, 24-h incubation at 37° C. As for the experimental part:
Two grams of agar were dissolved in 100 mL of 0.1 M phosphate buffer at pH 7.4 at 80° C. for 3 h with stirring. GSNO solutions at 0.2 M with or without 0.2 M αCD in 0.1 M phosphate buffer at pH 7.4 were prepared separately. Then, 0.5 mL GSNO solution and 0.5 mL dissolved agar were mixed and put into an ice bath to facilitate gelation.
The overnight S. aureus culture was diluted to a density of 0.1 OD600 in PBS. Then, the diluted bacterial inoculum was uniformly spread on an LB-agar plate using a sterile cotton swab. The plate was marked as four separate portions. Forty μL of warm liquid agar with only buffer, GNSO, αCD, or GSNO-αCD (see section 2.5) was added onto a portion of the inoculated plate twice. The agar solution was gelated almost instantly due to the temperature decrease to form a small circular hydrogel area. The bacterial growth was visually examined after 24-h incubation at 37° C.
For orientation: In agar diffusion tests the substance spreads into inoculated agar from a disc or well.

For the next data set, the system named is E. coli. In words: Antibacterial effect of NO release solutions, 3-day exposure. To be noted: silicone surface. In kind it is cell-based. As for the experimental part: Both biofilm and planktonic bacteria were quantified to evaluate the antibacterial activities of the proposed method. LB medium (25 mg/mL) was used to culture all bacterial strains overnight before performing the antibacterial tests. Segments of medical-grade silicone tubes were all autoclaved. Lock solutions were freshly prepared using the sterilized buffer and filtered through a 0.22 m PES syringe filter. The biofilms on the silicone surface were dip-rinsed 5 times in PBS and detached by 1-min vertexing, 1-min sonication (20% power of a 150 W probe sonifier, Branson Ultrasonics), and another 1-min vertexing for plate counting. When quantifying the planktonic bacteria, the suspension was homogenized by 1-min vertexing. […] After plate incubation at 37° C. overnight, colony-forming units (CFU) of bacteria were counted and converted to CFU/cm^2 for biofilm quantification and CFU/mL for planktonic bacteria quantification. […] In our case, the limit of detection (LOD) is 400 CFU/cm^2 for biofilm quantification and 200 CFU/mL for quantification of planktonic bacteria. […] The statistical significance between groups was determined using a student's t-test.
The 0.1 M αCD, 0.1 M GSNO, and 0.1 M GSNO+0.1 M αCD solutions were prepared in LB broth buffered with 0.1 M Na2HPO4 and adjusted to pH 7.4. […] Viable biofilm and planktonic cells were evaluated by plate counting. […]

A short description of data set [2]: NO release from silicone rubber tubes filled with lock solutions. In kind it is physicochemical. To be noted: silicone tube filled with 0.1 M GSNO without or with 0.1 M αCD, 37° C. The procedure: as §1
The test system of the next data set is fibroblast L929 cells. In words: Cytotoxicity test (MTS assay) of lock-solution-filled silicone tubes. In kind it is cell-based, mouse. To be noted: 24-h incubation of L929 cells with silicone tubes filled with the lock solution. The procedure:
L929 murine fibroblast cells were suspended in complete media (DMEM with 1% penicillin/streptomycin and 10% FBS) before being seeded in a 24-well plate at a concentration of 5×10^5 cells per well. After 24 h of incubation, the attached cells in each well were incubated in fresh media containing a sterilized 1-cm silicone tube (HelixMark® 60-011-07) filled with a lock solution with buffer, GSNO, or GSNO-αCD and with both ends sealed. MTS assays were performed following the manufacturer's procedure after an additional 24-h incubation. Absorbance at 490 nm was measured by a Cytation 3 imaging plate reader (Biotek).
A general note: Formazan colour is commonly taken as a measure of viable cells.

As to `N[C@@H](CCC(=O)N[C@@H](CSN=O)C(=O)NCC(=O)O)C(=O)O` [GSNO, S-nitrosoglutathione], in data set [1], the “duration of NO release” value came to 6 days. Besides, the “S. aureus growth on the hydrogel” value in the data set with S. aureus is “grows less bacteria”. In addition, the “reduction of E. coli biofilm” value in the data set with E. coli was determined as 79%. Moreover, the “initial release of NO on day 0” value in data set [2] is 14.8×10^−10 mol cm^−2 min^−1. In data set [2] (in pH 7.4 PBSE), the “duration of NO release over 0.1×10^−10 mol cm^−2 min^−1 from the catheter exterior” value is reported as 6 days. In addition, the “cytotoxicity / cell viability (MTS)” value in the data set on fibroblast L929 cells is given as “no cytotoxicity”.
